# Assay results: ChEMBL document CHEMBL1201862, “PubChem BioAssay data set” (2004)
# Active and inactive are the calls of the source.
# Experiments:
# [1] = molecular target: T1, Rac GTPase-activating protein 1 (Homo sapiens, UniProt Q9H0H5); assay: blockers of MgcRacGAP-driven Rac1 GTP hydrolysis – biochemical, ADP Hunter fluorescence, primary and confirmatory, confirmation (AID 624330); type: functional
# T1 sequence (Q9H0H5 whole entry): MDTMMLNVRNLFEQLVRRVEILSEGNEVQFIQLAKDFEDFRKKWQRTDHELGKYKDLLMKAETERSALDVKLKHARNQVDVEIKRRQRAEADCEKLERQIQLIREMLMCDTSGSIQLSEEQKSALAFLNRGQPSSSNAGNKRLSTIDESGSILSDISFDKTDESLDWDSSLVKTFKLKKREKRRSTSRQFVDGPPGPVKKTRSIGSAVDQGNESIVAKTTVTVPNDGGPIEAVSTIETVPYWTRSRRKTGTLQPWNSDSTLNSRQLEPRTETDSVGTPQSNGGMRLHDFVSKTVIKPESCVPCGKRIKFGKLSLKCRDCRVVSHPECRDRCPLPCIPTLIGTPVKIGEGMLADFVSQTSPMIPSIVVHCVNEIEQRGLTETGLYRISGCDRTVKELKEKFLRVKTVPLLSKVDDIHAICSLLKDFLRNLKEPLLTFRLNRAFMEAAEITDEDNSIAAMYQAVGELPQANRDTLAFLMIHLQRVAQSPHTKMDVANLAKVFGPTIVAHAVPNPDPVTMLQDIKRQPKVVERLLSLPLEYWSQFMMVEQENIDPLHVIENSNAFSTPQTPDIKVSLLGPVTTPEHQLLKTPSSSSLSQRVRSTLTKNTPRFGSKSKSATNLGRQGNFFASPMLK
# Cytochrome P450 2C19 = Cytochrome P450 2C19 (Homo sapiens, UniProt P33261); assay: Cytochrome panel assay with activity outcomes. Panel member name: p450-cyp2c19 Compounds with AC50 equal or less than 10 uM are considered active; type: functional
# Cytochrome P450 2C19, sequence (P33261 whole entry): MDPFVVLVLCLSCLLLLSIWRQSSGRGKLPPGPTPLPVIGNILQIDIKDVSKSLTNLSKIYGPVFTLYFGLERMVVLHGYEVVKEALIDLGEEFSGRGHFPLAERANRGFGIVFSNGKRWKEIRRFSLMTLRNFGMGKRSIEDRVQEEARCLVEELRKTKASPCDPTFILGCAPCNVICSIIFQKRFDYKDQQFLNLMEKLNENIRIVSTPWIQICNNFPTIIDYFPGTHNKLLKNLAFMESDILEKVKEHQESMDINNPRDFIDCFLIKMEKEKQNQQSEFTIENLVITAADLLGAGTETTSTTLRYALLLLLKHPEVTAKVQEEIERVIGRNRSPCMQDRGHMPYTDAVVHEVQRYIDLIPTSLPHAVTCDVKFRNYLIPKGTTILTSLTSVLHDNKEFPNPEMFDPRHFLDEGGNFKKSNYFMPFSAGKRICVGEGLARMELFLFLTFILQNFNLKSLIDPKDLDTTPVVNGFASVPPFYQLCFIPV
# Cytochrome P450 3A4 = Cytochrome P450 3A4 (Homo sapiens, UniProt P08684);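 also: CYP3A4 tested as one member of a cytochrome P450 panel screen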
# Cytochrome P450 3A4, sequence (P08684 whole entry): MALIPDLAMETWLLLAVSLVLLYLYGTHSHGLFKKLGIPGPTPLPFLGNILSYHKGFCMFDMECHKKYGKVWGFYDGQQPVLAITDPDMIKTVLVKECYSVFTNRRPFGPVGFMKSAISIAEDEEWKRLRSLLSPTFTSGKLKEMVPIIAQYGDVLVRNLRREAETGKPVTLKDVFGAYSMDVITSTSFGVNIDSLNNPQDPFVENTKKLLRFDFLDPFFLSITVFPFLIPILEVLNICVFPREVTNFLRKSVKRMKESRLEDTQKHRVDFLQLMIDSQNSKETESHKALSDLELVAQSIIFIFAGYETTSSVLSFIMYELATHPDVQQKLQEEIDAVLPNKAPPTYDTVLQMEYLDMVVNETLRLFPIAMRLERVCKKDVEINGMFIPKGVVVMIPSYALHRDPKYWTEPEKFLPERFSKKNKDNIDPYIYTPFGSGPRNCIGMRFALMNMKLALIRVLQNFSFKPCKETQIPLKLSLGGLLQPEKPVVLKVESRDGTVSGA
# Cytochrome P450 1A2 = molecular target: T2, Cytochrome P450 1A2 (Homo sapiens, UniProt P05177);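 also: PubChem cytochrome P450 panel assay, CYP1A2 panel member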
# T2 sequence (P05177 whole entry): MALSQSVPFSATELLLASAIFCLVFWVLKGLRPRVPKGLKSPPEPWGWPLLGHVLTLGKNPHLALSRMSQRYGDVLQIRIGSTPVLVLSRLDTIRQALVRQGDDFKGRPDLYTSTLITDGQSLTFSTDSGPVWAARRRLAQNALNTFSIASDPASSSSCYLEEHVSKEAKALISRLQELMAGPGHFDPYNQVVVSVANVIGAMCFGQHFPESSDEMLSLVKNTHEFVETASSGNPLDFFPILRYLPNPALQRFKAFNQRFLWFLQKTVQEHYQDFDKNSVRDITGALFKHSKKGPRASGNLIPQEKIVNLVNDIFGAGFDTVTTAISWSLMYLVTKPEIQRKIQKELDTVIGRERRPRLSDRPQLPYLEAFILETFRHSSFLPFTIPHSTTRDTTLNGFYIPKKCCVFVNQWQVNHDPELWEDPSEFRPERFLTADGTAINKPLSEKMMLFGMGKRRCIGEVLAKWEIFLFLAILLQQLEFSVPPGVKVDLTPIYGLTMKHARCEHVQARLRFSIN
# [2] = NIH3T3 cell viability loss – ATP luminescence, mouse fibroblasts, counter-screen, dose response (AID 2010); type: functional, cell-based;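 also: cells exposed to compound for about 90 hours before reading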
# [3] = Trypanosoma cruzi growth suppression in host cells – NIH3T3 host cells, beta-gal luminescence, confirmation (AID 2044); type: functional, cell-based;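 also: intracellular parasites grown in NIH/3T3 mouse fibroblasts as host cells; luminescent beta-galactosidase reporter signal from transgenic T. cruzi replicating inside host cells; inhibitors lower the luminescence signal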
structure (smiles),measurement,setting,value
O=C(CCc1ccc(O)c(O)c1)N/N=C/c1ccc2c(c1)OCO2,IC50,[1],91.7 µM (active)
CC1(C)C2([N+](=O)[O-])CN3CC1([N+](=O)[O-])CN(C2)C3c1ccccc1 (configuration not stated),AC50,Cytochrome P450 2C19; read-out: AC50,0.355 µM (inconclusive)
CCN(CC)c1ccc(NC(=O)CN2C(=O)NC3(CCc4ccccc43)C2=O)cc1 (configuration not stated),IC50,[1],89.8 µM (active)
CN1CCCC2(CCN(C(=O)c3cc(C(F)(F)F)cc(C(F)(F)F)c3)CC2)C1,AC50,Cytochrome P450 3A4,25.1 µM (inconclusive)
same,AC50,Cytochrome P450 2C19; read-out: AC50,25.1 µM (inconclusive)
CCN1CCN(CCCCOc2ccccc2F)CC1,IC50,[1],70.1 µM (active)
CNC(=O)[C@@H]1O[C@@H](n2cnc3c(NCc4ccc(N)cc4)ncnc32)[C@@H](O)[C@H]1O,AC50,Cytochrome P450 3A4,25.1 µM (inconclusive)
Cc1nc2cnc(Oc3cccc(Cl)c3)nc2n(C2CC2)c1=O,AC50,Cytochrome P450 2C19; read-out: AC50,31.6 µM (inconclusive)
Nc1c(S(N)(=O)=O)cc(S(N)(=O)=O)cc1S(N)(=O)=O,AC50,Cytochrome P450 2C19,inconclusive
COC(=O)[C@@]1(Cc2ccc(OC)cc2)[C@H]2c3cc(C(=O)N4CCCC4)n(CCc4c[nH]c5ccc(OC)cc45)c3C[C@H]2CN1C(=O)c1ccccc1,AC50,Cytochrome P450 1A2,10 µM (inconclusive)
Nc1c2c(=O)oc(-c3ccccc3)cc2nn1-c1ccccc1,AC50,Cytochrome P450 3A4,25.1 µM (inconclusive)
Cc1ccc(C)c(NC(=N)Nc2nc(C)cc(C)n2)c1,AC50,Cytochrome P450 2C19,inconclusive
same,EC50,[2],> 60 µM (inconclusive)
same,AC50,Cytochrome P450 1A2,14.1 µM (inconclusive)
same,EC50,[3],1.2 µM (active)
COc1ncc2ncc(=O)n(CCC#N)c2n1,AC50,Cytochrome P450 1A2,20 µM (inconclusive)
Cn1c(=O)c(-c2ccccc2)nc2cncnc21,AC50,Cytochrome P450 3A4,12.6 µM (inconclusive)
O=C(CC(c1ccccc1)c1ccccc1)Nc1ccc(O)cc1,IC50,[1],47.2 µM (active)
Cc1c(NC(=O)NC(C)N2C(=O)C3C4C=CC(C4)C3C2=O)c(=O)n(-c2ccccc2)n1C (configuration not stated),AC50,Cytochrome P450 3A4,25.1 µM (inconclusive)
O=C1[C@H]2[C@H]3[C@H](O)[C@H](O)C/C(=N/OC[C@@H](O)COCc4ccco4)[C@@H]3CC[C@@H]2C(=O)N1C1CCCCC1,AC50,Cytochrome P450 3A4,5.01 µM (inconclusive)
S=C=Nc1cccc(C2(N3CCCCC3)CCCCC2)c1,AC50,Cytochrome P450 1A2,31.6 µM (inconclusive)
COc1ccc(NC(=O)N2CC3(CCN(C(=O)c4ccc(OC)cc4)CC3)C2)cc1,AC50,Cytochrome P450 3A4,25.1 µM (inconclusive)
COc1ccccc1CNc1ncncc1-c1cccc(C#N)c1,AC50,Cytochrome P450 3A4,0.316 µM (inconclusive)
CC(C)NCC#CCOc1ccc(Cl)cc1,IC50,[1],162 µM (active)
O=C1Nc2ccccc2C2=N[C@@H](CN3CCN(c4ccccc4)CC3)CN12,AC50,Cytochrome P450 1A2,20 µM (inconclusive)
C=CCc1cc(Cl)ccc1OCCNCCN1CCOCC1,IC50,[1],90.8 µM (active)
same,EC50,[2],> 60 µM (not active)
same,EC50,[3],0.136 µM (active)
Cc1cc(C)c(C)c(OCCNCc2ccccc2)c1,IC50,[1],105 µM (active)
CCOc1ccc(OCCOCCN2CCCC2)cc1,IC50,[1],109 µM (active)
O=c1oc2ccccc2c(O)c1Cc1c(O)c2ccccc2oc1=O [DICUMAROL],AC50,Cytochrome P450 2C19; read-out: AC50,10 µM (inconclusive)
same,AC50,Cytochrome P450 1A2,12.6 µM (inconclusive)
COc1cc(/C=C/C(=O)OCC(=O)NCCCc2ccccc2)ccc1O,IC50,[1],41.5 µM (active)
COc1ccc(NCc2cccnc2)cc1,IC50,[1],53.1 µM (active)
CC(=O)NCCNc1nc(-c2ccccc2C(F)(F)F)nc2ccccc12,AC50,Cytochrome P450 3A4,12.6 µM (inconclusive)
CSc1nc(C)c2c(n1)N(c1ccc(O)cc1)CC2,IC50,[1],16.8 µM (active)
Cc1cc(C(=O)Nc2c(C)n(C)n(-c3ccccc3)c2=O)c2ccccc2n1,AC50,Cytochrome P450 2C19,inconclusive
CC1CCC(NC(=O)CC(C)(C)Cc2nc(O)c3ccccc3n2)CC1 (configuration not stated),AC50,Cytochrome P450 1A2,22.4 µM (inconclusive)
Cc1cccc2nc(C(F)(F)F)nc(=O)n12,AC50,Cytochrome P450 2C19; read-out: AC50,28.2 µM (inconclusive)
same,AC50,Cytochrome P450 1A2,0.0316 µM (inconclusive)
Cc1noc(C)c1-c1cncnc1NCc1ccccc1,AC50,Cytochrome P450 1A2,25.1 µM (inconclusive)
Cc1cc(C)c(S(=O)(=O)N2CCN(c3ccc([N+](=O)[O-])c(NCC4CCCO4)c3)CC2)c(C)c1 (configuration not stated),AC50,Cytochrome P450 3A4,3.55 µM (inconclusive)
COc1cc(/C=C/C(=O)N[C@@H](Cc2c[nH]c3ccccc23)C(=O)O)ccc1O,IC50,[1],80 µM (active)
COc1ccc(OC)c(CNC(=O)CCNC(=O)Cn2ccc3ccccc3c2=O)c1,AC50,Cytochrome P450 2C19; read-out: AC50,31.6 µM (inconclusive)
Brc1cccc(CNCCc2ccc3c(c2)OCO3)c1,IC50,[1],179 µM (active)
O=C(c1cccc(F)c1)N1CCC2(CCCN(c3ccc(-c4ccccc4)cc3)C2)CC1,AC50,Cytochrome P450 3A4,12.6 µM (inconclusive)
same,AC50,Cytochrome P450 2C19; read-out: AC50,20 µM (inconclusive)
CCN1CCN(C(C)C(=O)NC2CCCCC2)CC1 (configuration not stated),IC50,[1],75.6 µM (active)
C[N+](C)(C)c1ncnc2c1ncn2[C@@H]1CCCCO1,AC50,Cytochrome P450 2C19,inconclusive
COc1ccccc1N1CCN(/N=C/c2cc(OC)c(O)c(OC)c2)CC1,IC50,[1],252 µM (active)
C/C(=C\C=C/[C@@H](C)C(=O)O)[C@H]1CN[C@H](C(=O)O)[C@@H]1CC(=O)O,AC50,Cytochrome P450 2C19,inconclusive
CN1C[C@@H](CS(=O)(=O)N(C)C)C[C@H]2c3cccc4c3c(cn4C)C[C@@H]21,AC50,Cytochrome P450 1A2,25.1 µM (inconclusive)
COc1ccc(N2CCN(CC(=O)Nc3cccc(S(=O)(=O)N4CCOCC4)c3)CC2)cc1,IC50,[1],77.5 µM (active)
COc1cc(/C=N/NC(=O)CCN2CCN(C(c3ccccc3)c3ccccc3)CC2)ccc1O,IC50,[1],50.9 µM (active)
O=C1CCCC=C1[C@@H](O)COCc1ccccc1,AC50,Cytochrome P450 3A4,3.16 µM (inconclusive)
CCCc1ccc(-c2cc(C(=O)NN3CCOCC3)c3ccccc3n2)cc1,AC50,Cytochrome P450 3A4,12.6 µM (inconclusive)
same,AC50,Cytochrome P450 2C19; read-out: AC50,15.8 µM (inconclusive)
CSC(=N)NCCC[C@@H](N)C(=O)O [S-METHYL-D-THIOCITRULLINE],AC50,Cytochrome P450 2C19,inconclusive
CCCc1cc(=O)[nH]c(=S)[nH]1 [PROPYLTHIOURACIL],AC50,Cytochrome P450 2C19,inconclusive
N#C/C(=C\c1cccnc1)C(=O)Nc1cccc2ccccc12,IC50,[1],157 µM (active)
OC(Cc1nc2ccccc2[nH]1)c1ccccc1Cl (configuration not stated),AC50,Cytochrome P450 1A2,25.1 µM (inconclusive)
O=C(c1cccc(F)c1)N1CCC[C@@]2(CCN(c3ccncc3)C2)C1,AC50,Cytochrome P450 2C19; read-out: AC50,2.51 µM (inconclusive)
Cc1ccsc1-c1nc(-c2ccccc2)c(-c2ccccc2)[nH]1,AC50,Cytochrome P450 2C19; read-out: AC50,10 µM (inconclusive)
CCC(CC)N1CCN(C(=O)c2cccc(Cl)c2)CC1,IC50,[1],193 µM (active)
CC[C@]1(O)C[C@@H]2CN(CCc3c([nH]c4ccccc34)[C@](C(=O)OC)(c3cc4c(cc3OC)N(C=O)[C@H]3[C@@](O)(C(=O)OC)[C@H](C(=O)OC)[C@@]5(CC)C=CCN6CC[C@]43[C@H]65)C2)C1,AC50,Cytochrome P450 3A4,25.1 µM (inconclusive)
CCc1cc(/C(Cc2cscn2)=N\O)c(O)cc1O,IC50,[1],52 µM (active)
CCOc1cc(/C=C2/NC(=O)N(Cc3ccccc3F)C2=O)ccc1O,IC50,[1],44.5 µM (active)
CCOC(=O)c1cc(-c2ccccc2)sc1NC(=O)CN1C(=O)NC(CC)(c2ccc(F)cc2)C1=O (configuration not stated),EC50,[2],> 60 µM (not active)
same,EC50,[3],2.21 µM (active)
COc1ccc(Oc2ncc3nc(CCc4ccccc4)c(=O)n(CCC#N)c3n2)cc1,AC50,Cytochrome P450 1A2,6.31 µM (inconclusive)
O=C(O)CN1C(=O)CN=C(c2ccccn2)c2cc(Cl)ccc21,AC50,Cytochrome P450 1A2,1.26 µM (inconclusive)
O=C(Nc1ccc(Cl)cc1)OCCn1nnnc1C(c1ccccc1Cl)N1CCOCC1 (configuration not stated),AC50,Cytochrome P450 3A4,0.891 µM (inconclusive)
Cc1cc(/C=C(\C#N)C(=O)N2CCCCC2)cc(C)c1O,IC50,[1],59.4 µM (active)
O=C(Cc1coc2cc(O)ccc12)NNC(=O)c1ccc(Br)s1,IC50,[1],31.8 µM (active)
O=[N+]([O-])c1ccc(S(=O)(=O)N2CCN(Cc3c[nH]c4ccccc34)CC2)cc1,EC50,[2],> 60 µM (not active)
same,EC50,[3],1.31 µM (active)
CC[C@](N)(CCC(=O)O)C(=O)O,AC50,Cytochrome P450 1A2,20 µM (inconclusive)
CC(C)(C)c1nc(SCC(=O)Nc2ccc3c(c2)OCCO3)c2ccccc2n1,AC50,Cytochrome P450 1A2,10 µM (inconclusive)
O=C(CCN1CCN(c2ccccc2)CC1)c1ccc(Br)cc1,EC50,[2],> 60 µM (not active)
same,EC50,[3],1.85 µM (active)
CC(=O)c1cc(CC=C(C)C)c(O)cc1O,AC50,Cytochrome P450 3A4,1.41 µM (inconclusive)
CN(Cc1ccco1)c1ncnc2ccc(-c3ccccc3C#N)cc12,AC50,Cytochrome P450 3A4,31.6 µM (inconclusive)
